These results are taken from ChEMBL document CHEMBL1134391, “Design, synthesis, and structural analysis of influenza neuraminidase inhibitors containing pyrrolidine cores” (J Med Chem, 2001).

Test [1] concerns influenza virus b. Nature of the test: Inhibitory activity was determined against Neuraminidase B/Memphis at 0.5 mM concentration.
Another test addresses Neuraminidase (Influenza B virus (strain B/Lee/1940), UniProt P03474). Nature of the test: Inhibitory activity was determined against Neuraminidase B/Memphis.
Test [2] has as its system influenza virus b. Briefly: Inhibitory activity was determined against Neuraminidase B/Memphis at 1 mM concentration.

Chain of Neuraminidase (P03474 whole entry): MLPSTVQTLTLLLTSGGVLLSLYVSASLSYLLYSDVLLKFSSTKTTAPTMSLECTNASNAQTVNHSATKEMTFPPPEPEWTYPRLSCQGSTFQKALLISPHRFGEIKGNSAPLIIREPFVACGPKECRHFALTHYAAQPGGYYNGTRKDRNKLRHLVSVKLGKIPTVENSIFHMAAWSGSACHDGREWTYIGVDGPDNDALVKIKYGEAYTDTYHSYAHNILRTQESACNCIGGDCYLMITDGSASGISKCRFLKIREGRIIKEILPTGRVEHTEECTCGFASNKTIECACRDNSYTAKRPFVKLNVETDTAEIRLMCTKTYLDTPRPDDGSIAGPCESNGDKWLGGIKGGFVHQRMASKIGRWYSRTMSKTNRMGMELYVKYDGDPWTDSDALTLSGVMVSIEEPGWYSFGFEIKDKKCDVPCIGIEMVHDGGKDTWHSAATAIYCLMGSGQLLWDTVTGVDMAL

By inhibition is commonly meant how much of the control response was suppressed. The low end stands for little suppression, the high end for strong suppression. `CCN(C(=O)N1C[C@@H](C(=O)O)[C@@H](N)[C@@H]1CNS(C)(=O)=O)C(C)C` had an inhibition in the test on influenza virus b [1] of 38%.

The term IC50 denotes the concentration that gives 50% inhibition. At Neuraminidase, `CCN(C(=O)N1C[C@@H](C(=O)O)[C@@H](N)[C@@H]1CNC(C)=O)C(C)C` registered an IC50 of 340 µM. The molecule `CCC(=O)NC[C@H]1[C@H](N)[C@H](C(=O)O)CN1C(=O)N(CC)C(C)C` came in with an inhibition with influenza virus b [2] of 26%. `CCN(C(=O)N1C[C@@H](C(=O)O)[C@@H](N)[C@@H]1CNC(=O)C(F)(F)F)C(C)C` [A-192558] returned an IC50 against Neuraminidase of 8 µM.
